For 1 molecule, IC50 and body weight results are on record in paper PMC5444695, “CM363, a novel naphthoquinone derivative which acts as multikinase modulator and overcomes imatinib resistance in chronic myelogenous leukemia” (Oncotarget, 2016).

The test system of one series is MV4.11 cells. Briefly: MTT cell viability assay, MV4.11 cells. Format: cell-based. The note with it: Homo sapiens, MV4.11, 48 h, read-out: IC50 (μM) Mean ± SD. The procedure:
(§1) All cell lines were purchased from the American Type Culture Collection (ATCC). The cell lines were growth at 37°C under 5% CO2 under humidified atmosphere. The cell lines K562 (derived from patients during the blast crisis phase of CML and IM sensitive), K562-R (IM resistance human CML), KmycBT15I (KBTI; IM resistant human CML, expressing the Bcr-Abl […] mutant), HEL (human erythroleukemia), HL60 (human acute myeloid leukemia), MOLM-13 (human acute myeloid leukemia), MV4.11 (human acute monocytic leukemia), HCT-15 (human colorectal adenocarcinoma), PC3 (human prostate cancer), MCF7 (human breast cancer), NCTC3749 (mouse lymphoma) as well as the MRC.5 cells (non-malignant human lung fibroblasts) were maintained in RPMI-1640 medium. The cell lines L1210 (mouse lymphocytic leukemia cells), Raw (mouse macrophage), HeLa (human epithelial cervix cancer), U-2 OS (human osteosarcoma), MG63 (human osteosarcoma) and T47D (human breast cancer adenocarcinoma) were maintained in DMEM. HEK293 cells stably expressing the GH receptor (HEKGHR) were maintained in DMEM-F12 medium. […]
(§2) Cells were seeded in 96-well plates (BD Falcon, France) at exponential growth density (5000–20000 cells/well) and treated with vehicle (0.05% DMSO) or compound (0.01 to 10 μM) for 48–72 h. […] Optical density was measured at 595 nm with the iMark Microplate Reader (BioRad, CA, USA).

Series [1] is described as follows: Body weight of xenografted mice. The class given is in vivo. The following applies: CM363 10 mg/kg i.p., 25 days. The procedure:
Six weeks old female athymic mice (NOD-SCID), were purchased from Charles River River (Barcelona, Spain), and were housed in a specifically designed pathogen-free isolation facility as reported previously. The mice were subcutaneously inoculated into the right flank with 2.5 × l0^6 K562 cells in 100 μL of RPMI-1640 medium and 100 μL of Matrigel. When tumors became palpable, mice were randomized into three groups (n = 8 per group); the control group (receiving vehicle alone- DMSO: PEG-400: sterile water at 5:25:70 (w/v)), the group receiving CM363 10 mg/Kg or the group receiving the positive control IM 40 mg/kg. The vehicle and CM363 treatments were administered via intraperitoneal injection (i.p.) every day except Saturday and Sunday. While IM was administered orally using the same schedule. The study was conducted over a 25 days period. Caliper measurements of the tumor diameters were performed twice per week, and the tumor volume was estimated as the volume of an ellipse using the following formula: V = 4/3n × (a/2) × (b/2)^2, where a and b correspond to the longest and shortest diameter, respectively. Mice were sacrificed when their tumor diameters reached 2 cm, or when they became moribund. Differences in tumor volumes between control and treated group were evaluated using the Mann-Whitney test.

The subject of a further series is HEL cells. Briefly: MTT cell viability assay, HEL cells. The class given is cell-based. The note with it: Homo sapiens, 48 h, read-out: IC50 (μM) Mean ± SD. The procedure: as §1, §2

Consider `N#Cc1ccc(C2C3=C(CCCC3=O)OC3=C2C(=O)c2ccccc2C3=O)cc1` (stereo not drawn) [CM363, 4-(1,6,11-trioxo-2,3,4,6,11,12-hexahydro-1H-benzo[b]xanthen-12-yl)benzonitrile], for which the results for the IC50 with MV4.11 cells and in the series with HEL cells were 1.2 ± 1.1 µM and 1.3 ± 0.3 µM, respectively. For the same molecule, the body weight entry in series [1] is listed as “no significant body weight reduction”.
